pIC50: −log10 of the molar value.
What was measured:
[1] = biological target: Human immunodeficiency virus type 1 protease (Human immunodeficiency virus 1, UniProt Q72874); experiment: In vitro inhibition of HIV-1 protease at pH 6 using 164 uM peptide substrate
[2] = system: Human immunodeficiency virus 1; experiment: Antiviral activity against HIV-1 LAV virus infected MT-2 cells with reference to AZT (ED90=0.3 uM); type: functional, MT2
[3] = biological target: T1, Gastricsin (Homo sapiens, UniProt P20142); experiment: The compound was tested for its inhibitory activity against human gastricsin
T1 sequence (P20142 whole entry): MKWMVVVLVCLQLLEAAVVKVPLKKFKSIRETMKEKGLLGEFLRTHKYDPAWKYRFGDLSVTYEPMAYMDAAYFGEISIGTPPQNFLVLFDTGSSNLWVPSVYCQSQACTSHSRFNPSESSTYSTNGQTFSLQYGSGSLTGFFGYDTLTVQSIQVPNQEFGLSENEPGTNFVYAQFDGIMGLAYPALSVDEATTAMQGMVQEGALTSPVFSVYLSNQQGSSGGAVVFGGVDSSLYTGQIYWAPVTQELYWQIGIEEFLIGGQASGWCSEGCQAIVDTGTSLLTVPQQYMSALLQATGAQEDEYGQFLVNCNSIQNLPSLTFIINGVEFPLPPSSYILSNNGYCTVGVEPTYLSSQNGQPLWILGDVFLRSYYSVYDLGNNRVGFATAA

[4] = biological target: Cathepsin D (Homo sapiens, UniProt P07339); experiment: The compound was tested for its inhibitory activity against human cathepsin D
Sequence of Cathepsin D (P07339 65-162 limits assumed): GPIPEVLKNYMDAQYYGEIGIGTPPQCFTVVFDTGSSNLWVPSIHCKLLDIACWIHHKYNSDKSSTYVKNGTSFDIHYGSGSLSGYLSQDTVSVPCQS
Sequence of Cathepsin D (P07339 169-412 limits assumed): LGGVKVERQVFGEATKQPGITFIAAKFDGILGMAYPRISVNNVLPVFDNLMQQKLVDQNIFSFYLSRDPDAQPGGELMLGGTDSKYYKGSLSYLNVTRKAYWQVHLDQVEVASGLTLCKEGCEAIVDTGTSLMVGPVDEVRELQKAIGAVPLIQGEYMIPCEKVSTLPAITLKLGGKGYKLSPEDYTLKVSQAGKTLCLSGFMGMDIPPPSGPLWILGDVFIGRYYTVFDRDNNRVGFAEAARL

[5] = biological target: T2, Cathepsin E (Homo sapiens, UniProt P14091); experiment: The compound was tested for its inhibitory activity against human cathepsin E
T2 sequence (P14091 whole entry): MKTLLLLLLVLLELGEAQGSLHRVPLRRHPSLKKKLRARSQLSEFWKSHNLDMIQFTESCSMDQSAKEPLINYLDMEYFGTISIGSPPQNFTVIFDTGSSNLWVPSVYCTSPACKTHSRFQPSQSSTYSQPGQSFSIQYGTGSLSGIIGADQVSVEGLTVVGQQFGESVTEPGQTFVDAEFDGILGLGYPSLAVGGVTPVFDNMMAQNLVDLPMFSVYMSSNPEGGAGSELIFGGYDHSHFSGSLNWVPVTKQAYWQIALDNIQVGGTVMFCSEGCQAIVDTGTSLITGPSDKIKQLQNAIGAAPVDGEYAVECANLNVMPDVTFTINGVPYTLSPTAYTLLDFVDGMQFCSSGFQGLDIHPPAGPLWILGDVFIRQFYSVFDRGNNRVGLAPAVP

[6] = biological target: T3, Renin (Homo sapiens, UniProt P00797); experiment: The compound was tested for its inhibitory activity against human renin
T3 sequence (P00797 whole entry): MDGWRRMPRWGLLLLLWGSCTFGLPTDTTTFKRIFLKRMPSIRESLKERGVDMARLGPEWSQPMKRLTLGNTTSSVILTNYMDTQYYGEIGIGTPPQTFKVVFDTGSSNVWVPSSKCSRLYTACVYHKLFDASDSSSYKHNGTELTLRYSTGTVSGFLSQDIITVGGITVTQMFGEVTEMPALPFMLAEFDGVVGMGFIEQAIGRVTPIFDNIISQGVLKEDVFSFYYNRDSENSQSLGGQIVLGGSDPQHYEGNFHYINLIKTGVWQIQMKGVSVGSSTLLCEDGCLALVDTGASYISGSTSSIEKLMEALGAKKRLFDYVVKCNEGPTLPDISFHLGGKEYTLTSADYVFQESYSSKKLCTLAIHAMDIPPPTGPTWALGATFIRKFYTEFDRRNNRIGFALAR

[7] = biological target: Human immunodeficiency virus type 1 protease (Human immunodeficiency virus 1) (UniProt Q72874); experiment: The compound was tested in vitro for the % inhibition of HIV-1 protease at 100 uM concentration
[8] = system: MT2; experiment: The compound was tested for its antiviral activity against HIV-1LAV virus infected MT-2 cells; type: functional, Homo sapiens

Row | SMILES | pIC50 [1] | ED90 [2] [µM] | also measured
1 | CC(C)CN(C[C@H](O)[C@H](Cc1ccccc1)NC(=O)[C@@H](NC(=O)OCc1ccccc1)C(C)C)NC(=O)[C@@H](NC(=O)OCc1ccccc1)C(C)C | 8.00 | >1 | –
2 | CC(C)[C@H](NC(=O)OCc1ccccc1)C(=O)N[C@@H](Cc1ccccc1)[C@@H](O)CN(Cc1ccc(F)cc1)NC(=O)[C@@H](NC(=O)OCc1ccccc1)C(C)C | 7.66 | 1 | –
3 | CC(C)[C@H](NC(=O)Cc1cccnc1)C(=O)N[C@@H](Cc1ccccc1)[C@@H](O)CN(Cc1ccccc1)NC(=O)[C@H](NC(=O)Cc1cccnc1)C(C)C | 6.30 | – | –
4 | CC(=O)N[C@H](C(=O)N[C@@H](Cc1ccccc1)[C@@H](O)CN(Cc1ccc(F)cc1)NC(=O)[C@@H](NC(C)=O)C(C)C)C(C)C | 7.55 | 10 | –
5 | CC(=O)N[C@H](C(=O)N[C@@H](Cc1ccccc1)[C@@H](O)CN(CC(C)C)NC(=O)[C@@H](NC(C)=O)C(C)C)C(C)C | 7.35 | >1 | –
6 | CC(=O)N[C@H](C(=O)N[C@@H](Cc1ccccc1)[C@@H](O)CN(CC1CCCCC1)NC(=O)[C@@H](NC(C)=O)C(C)C)C(C)C | 8.05 | 1 | pIC50 [3]: 6.00; pIC50 [4]: 5.12; pIC50 [5]: 5.70; pIC50 [6]: < 4.24
7 | CC(C)[C@H](NC(=O)OC(C)(C)C)C(=O)N[C@@H](Cc1ccccc1)[C@@H](O)CN(Cc1ccccc1)NC(=O)[C@H](NC(=O)OC(C)(C)C)C(C)C | 4.28 | – | –
8 | CC(C)[C@H](NC(=O)N1CCOCC1)C(=O)N[C@@H](Cc1ccccc1)[C@@H](O)CN(Cc1ccccc1)NC(=O)[C@H](NC(=O)N1CCOCC1)C(C)C | 5.70 | – | –
9 | CC(C)(C)OC(=O)N[C@@H](Cc1ccccc1)[C@@H](O)CN(Cc1ccccc1)NC(=O)OC(C)(C)C | ~4.30 | – | –
10 | CC(C)[C@H](NC(=O)OCc1ccccc1)C(=O)NN(Cc1ccccc1)C[C@H](O)[C@H](Cc1ccccc1)NC(=O)[C@H](NC(=O)OCc1ccccc1)C(C)C | < 4.00 | – | inhibition [7]: 40%
11 | CC(C)[C@H](NC(=O)OCc1ccccc1)C(=O)N[C@@H](Cc1ccccc1)[C@@H](O)CN(Cc1ccc(C#N)cc1)NC(=O)[C@@H](NC(=O)OCc1ccccc1)C(C)C | 7.62 | 0.1 | –
12 | CC(C)[C@H](N)C(=O)N[C@@H](Cc1ccccc1)[C@@H](O)CN(Cc1ccccc1)NC(=O)[C@H](N)C(C)C | < 4.00 | – | inhibition [7]: 32%
13 | CC(C)[C@H](NC(=O)Cc1ccccc1)C(=O)N[C@@H](Cc1ccccc1)[C@@H](O)CN(Cc1ccccc1)NC(=O)[C@H](NC(=O)Cc1ccccc1)C(C)C | 6.44 | – | –
14 | CC(C)[C@H](NC(=O)OCc1ccccc1)C(=O)N[C@@H](Cc1ccccc1)[C@@H](O)CN(CC1CCCCC1)NC(=O)[C@@H](NC(=O)OCc1ccccc1)C(C)C | 7.02 | 1 | –
15 | CC(C)[C@H](NC(=O)c1ccc2ccccc2n1)C(=O)N[C@@H](Cc1ccccc1)[C@@H](O)CN(Cc1ccccc1)NC(=O)[C@H](NC(=O)c1ccc2ccccc2n1)C(C)C | 7.19 | – | –
16 | Cc1cn([C@H]2C[C@H](N=[N+]=[N-])[C@@H](CO)O2)c(=O)[nH]c1=O [ZIDOVUDINE] | – | – | ED90 [8]: 0.3 µM
17 | CC(C)[C@H](NC(=O)OCc1ccccc1)C(=O)N[C@@H](Cc1ccccc1)[C@@H](O)CN(Cc1ccccc1)NC(=O)[C@H](NC(=O)OCc1ccccc1)C(C)C | 7.48 | 0.1 | –
18 | CC(=O)N[C@H](C(=O)N[C@@H](Cc1ccccc1)[C@@H](O)CN(Cc1ccc(C#N)cc1)NC(=O)[C@@H](NC(C)=O)C(C)C)C(C)C | 7.30 | >10 | –
19 | CC(=O)N[C@H](C(=O)N[C@@H](Cc1ccccc1)[C@@H](O)CN(Cc1ccccc1)NC(=O)[C@H](NC(C)=O)C(C)C)C(C)C | 7.52 | 10 | –
